Test results taken from patent US20060135522A1, “Tricyclic delta-opioid modulators” (priority 2004, published 2006).
Read-outs that look alike come from different tables or passages of the source.

Columns and labels:
[1] = biological target: T1, mu opioid receptor (Rattus norvegicus, UniProt P33535); experiment: Rat Brain Mu Opioid Receptor Binding Assay
T1 construct: from tissue; host or cells: forebrain of male Wistar rats (particulate membrane preparation)
Method: Procedure: Male, Wistar rats (150-250 g, VAF, Charles River, Kingston, N.Y.) were killed by CO2, and their brains were removed and placed immediately in ice cold Tris HCl buffer (50 mM, pH 7.4). The forebrains were separated from the remainder of the brain by a coronal transection, beginning dorsally at the colliculi and passing ventrally through the midbrain-pontine junction. After dissection, the forebrains were homogenized in Tris buffer in a Teflon®-glass homogenizer. The homogenate was diluted to a concentration of 1 g of forebrain tissue per 80 mL Tris and centrifuged at 39,000×g for 10 min. The pellet was resuspended in the same volume of Tris buffer containing 5 mM MgCl2 with several brief pulses from a Polytron homogenizer. This particulate preparation was used for the mu opioid binding assays.
(§1) Analysis: The data from the scintillation counter was used to calculate either the % inhibition compared to control binding (when only a single concentration of test compound was evaluated) or a Ki value (when a range of concentrations was tested). Percent inhibition was calculated as: [(total dpm-test compound dpm)/(total dpm-nonspecific dpm)]*100. Kd and Ki values were calculated using GraphPad PRISM data analysis program.

[2] = biological target: T2, delta opioid receptor (NG108-15 cell membranes) (Mus musculus, UniProt P32300); experiment: [35S]GTPγS Binding Assay in NG108-15 Cell Membranes (Delta Opioid); type: biochemical
T2 construct: NG108-15 cell membranes were purchased from Applied Cell Sciences (Rockville, Md.); host or cells: NG108-15 cell membranes (purchased)
Method: Methods: NG108-15 cell membranes were purchased from Applied Cell Sciences (Rockville, Md.). 8 mg/mL of membrane protein was suspended in 10 mM TRIS-HCl pH 7.2, 2 mM EDTA, 10% sucrose. Membranes were maintained at 4-8° C. A 1 mL volume of membranes was added into 10 mL cold binding assay buffer. The assay buffer contained 50 mM Tris, pH 7.6, 5 mM MgCl2, 100 mM NaCl, 1 mM DTT and 1 mM EGTA. The membrane suspension was homogenized twice with a Polytron, and centrifuged at 3000 rpm for 10 min. The supernatant was then centrifuged at 18,000 rpm for 20 min. Ten mL assay buffer was added into the pellet containing tube. The pellet and buffer were mixed with a Polytron.
Incubation procedure: The pellet membranes (75 μg/mL) were preincubated with SPA (10 mg/mL) at 25° C. for 45 min in the assay buffer. […] GTPγS in the same Tris buffer containing 100 μM GDP in a total volume of 200 μL. Increasing concentrations of receptor agonists were used to stimulate [^35S]-GTP[…]S binding. The basal binding was tested in the absence of agonists and non-specific binding was tested in the presence of 10 μM unlabeled GTPγS. The data were analyzed on a Packard Top Count.
% of Basal=(stimulated−non specific)*100/(basal−non specific).
EC50 value values were calculated using GraphPad Prism.

[3] = biological target: T3, delta opioid receptor (Rattus norvegicus, UniProt P33533); experiment: Rat Brain Delta Opioid Receptor Binding Assay
T3 construct: from tissue; host or cells: forebrain of male Wistar rats (particulate membrane preparation)
Method: Procedure: Male, Wistar rats (150-250 g, VAF, Charles River, Kingston, N.Y.) were killed by CO2, and their brains were removed and placed immediately in ice cold Tris HCl buffer (50 mM, pH 7.4). The forebrains were separated from the remainder of the brain by a coronal transection, beginning dorsally at the colliculi and passing ventrally through the midbrain-pontine junction. After dissection, the forebrains were homogenized in Tris buffer in a Teflon®-glass homogenizer. The homogenate was diluted to a concentration of 1 g of forebrain tissue per 80 mL Tris and centrifuged at 39,000×g for 10 min. The pellet was resuspended in the same volume of Tris buffer containing 5 mM MgCl2 with several brief pulses from a Polytron homogenizer. This particulate preparation was used for the delta opioid binding assays. Following incubation with the delta selective peptide ligand ˜4 nM [^3H]DPDPE or 0.15 nM [^3H]naltrindole at 25° C. for 2.5 h in a 96-well plate with total volume of […], the plate contents were filtered through Wallac filtermat B sheets on a Tomtec 96-well harvester. The filters were rinsed three times with 2 mL of 10 mM HEPES (pH 7.4), and dried in a 650 W microwave oven for 1.75 min twice. To each sample area 2×50 μL of Betaplate Scint scintillation fluid (LKB) was added and the radioactivity was quantified on a LKB (Wallac) 1205 BetaPlate liquid scintillation counter.
as §1

[4] = rat forebrain membranes, [3H]DAMGO, 25° C., 2.5 h, read-out: mu (Ki)
[5] = NG108-15 cell membranes, stimulation of [35S]GTPγS binding, read-out: delta GTPγS EC50

T2 sequence (P32300 whole entry): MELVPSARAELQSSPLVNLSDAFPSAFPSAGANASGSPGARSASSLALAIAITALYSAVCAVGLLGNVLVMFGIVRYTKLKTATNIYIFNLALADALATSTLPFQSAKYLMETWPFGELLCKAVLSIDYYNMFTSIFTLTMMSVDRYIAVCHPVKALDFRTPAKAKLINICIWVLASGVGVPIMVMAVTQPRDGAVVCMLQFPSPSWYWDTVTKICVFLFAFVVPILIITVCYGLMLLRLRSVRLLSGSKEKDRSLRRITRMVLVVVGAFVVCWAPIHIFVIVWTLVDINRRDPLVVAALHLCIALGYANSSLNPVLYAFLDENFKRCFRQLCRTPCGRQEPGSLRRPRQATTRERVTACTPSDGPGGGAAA
T3 sequence (P33533 whole entry): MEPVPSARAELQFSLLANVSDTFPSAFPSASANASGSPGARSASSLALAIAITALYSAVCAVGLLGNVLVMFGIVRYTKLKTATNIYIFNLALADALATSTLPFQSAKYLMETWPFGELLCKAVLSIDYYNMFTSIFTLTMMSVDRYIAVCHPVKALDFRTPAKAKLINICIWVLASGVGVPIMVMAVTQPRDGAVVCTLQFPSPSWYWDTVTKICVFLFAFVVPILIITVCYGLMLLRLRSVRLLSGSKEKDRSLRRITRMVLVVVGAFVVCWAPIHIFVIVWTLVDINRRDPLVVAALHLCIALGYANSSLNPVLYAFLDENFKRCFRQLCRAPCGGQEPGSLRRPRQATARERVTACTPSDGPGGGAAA
T1 sequence (P33535 whole entry): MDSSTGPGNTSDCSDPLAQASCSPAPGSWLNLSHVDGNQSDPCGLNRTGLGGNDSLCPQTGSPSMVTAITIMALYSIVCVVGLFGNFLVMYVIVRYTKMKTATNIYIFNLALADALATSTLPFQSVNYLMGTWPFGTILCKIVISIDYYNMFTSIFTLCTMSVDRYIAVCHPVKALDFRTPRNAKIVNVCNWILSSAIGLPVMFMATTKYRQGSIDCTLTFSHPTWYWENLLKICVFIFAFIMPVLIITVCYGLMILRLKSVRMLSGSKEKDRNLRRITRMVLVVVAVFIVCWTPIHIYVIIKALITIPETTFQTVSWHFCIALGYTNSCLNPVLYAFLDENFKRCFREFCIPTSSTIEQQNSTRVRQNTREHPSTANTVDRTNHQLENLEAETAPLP

Row | SMILES | Ki [1] [µM] | EC50 [2] [nM] | delta GTPγS Rel Eff. ([2]; NG108-15 cell membranes, relative efficacy) | Ki [3] [nM] | Ki [1, 4] [µM] | EC50 [2, 5] [nM]
1 | CCN(CC)C(=O)c1ccc2c(c1)Oc1c(O)cccc1C2C1CCNCC1 (stereo not shown) [7c, 5-Hydroxy-9-piperidin-4-yl-9H-xanthene-3-carboxylic acid diethylamide] | 4.23 | 18.7 | 0.51 | 2 | – | –
2 | CCN(CC)C(=O)c1cccc(-c2ccc3c(c2)Oc2c(O)cccc2C3C2CCNCC2)c1 (stereo not shown) [3j, N,N-Diethyl-3-(5-hydroxy-9-piperidin-4-yl-9H-xanthen-3-yl)-benzamide] | – | – | – | 37.8 | 0.535 | 342
3 | CCN(CC)C(=O)c1ccc2c(c1)Oc1ccccc1C2C1CCNCC1 (stereo not shown) [8a, 9-Piperidin-4-yl-9H-xanthene-3-carboxylic acid diethylamide] | – | – | – | 15 | 8.79 | 266
